The results in this text go back to US7880007B2, “Bicyclic substituted phenyl piperidine modulators of muscarinic receptors” (Vertex Pharmaceuticals Incorporated, priority 2004, dated 2011).

Common to all, as to type: cell-based
One experiment addresses T1, M3 muscarinic receptor (Homo sapiens, UniProt P20309).
T1 construct: expressed in transfected cells; host or cells: CHO (M3-CHO)
The experiment in a line: Functional mobilization of intracellular calcium (FLIPR), M3-CHO cells. To be noted: for Emax: 100% efficacy = maximum response obtained with the Carbachol control; for M3 Activity: M3-CHO cells, calcium mobilization (FLIPR). The method in brief:
(§1)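 CHO cells expressing human M1–M4 receptors loaded with Fluo-3 AM or Calcium 3 dye (1 mM probenecid, pH 7.4); 0.5% DMSO final. Agonist mode: compound added directly; antagonist mode: 15 min pre-incubation or co-application, then carbachol at EC80. Fluorescence read 60 s on FLIPR; efficacy relative to carbachol maximum.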
In general terms: A change in cytosolic calcium serves as a functional read-out for many receptors and channels.

Another experiment addresses T2, M2 muscarinic receptor (Homo sapiens, UniProt P08172).
T2 construct: expressed in transfected cells; host or cells: CHO (M2-CHO)
T2 sequence (P08172 1-466): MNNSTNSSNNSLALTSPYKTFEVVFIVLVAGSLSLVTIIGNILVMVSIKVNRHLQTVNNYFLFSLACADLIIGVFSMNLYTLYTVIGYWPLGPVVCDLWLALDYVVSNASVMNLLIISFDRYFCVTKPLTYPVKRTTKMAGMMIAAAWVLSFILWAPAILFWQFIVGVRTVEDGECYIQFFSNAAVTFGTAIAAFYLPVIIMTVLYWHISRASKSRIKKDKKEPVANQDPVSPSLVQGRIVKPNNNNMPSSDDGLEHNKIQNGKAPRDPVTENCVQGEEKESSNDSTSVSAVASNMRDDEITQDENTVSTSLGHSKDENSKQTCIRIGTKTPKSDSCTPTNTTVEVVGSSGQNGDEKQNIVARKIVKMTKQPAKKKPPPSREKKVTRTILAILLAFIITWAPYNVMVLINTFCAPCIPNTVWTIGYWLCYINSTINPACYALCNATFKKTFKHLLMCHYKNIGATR
The experiment in a line: Functional mobilization of intracellular calcium (FLIPR), M2-CHO cells. To be noted: for Emax: 100% efficacy = maximum response obtained with the Carbachol control; for M2 Activity: M2-CHO cells, calcium mobilization (FLIPR). The method in brief: as §1

The next experiment concerns the target T3, M1 muscarinic receptor (Homo sapiens, UniProt P11229).
T3 construct: expressed in transfected cells; host or cells: CHO (M1-CHO)
T3 sequence (P11229 1-460): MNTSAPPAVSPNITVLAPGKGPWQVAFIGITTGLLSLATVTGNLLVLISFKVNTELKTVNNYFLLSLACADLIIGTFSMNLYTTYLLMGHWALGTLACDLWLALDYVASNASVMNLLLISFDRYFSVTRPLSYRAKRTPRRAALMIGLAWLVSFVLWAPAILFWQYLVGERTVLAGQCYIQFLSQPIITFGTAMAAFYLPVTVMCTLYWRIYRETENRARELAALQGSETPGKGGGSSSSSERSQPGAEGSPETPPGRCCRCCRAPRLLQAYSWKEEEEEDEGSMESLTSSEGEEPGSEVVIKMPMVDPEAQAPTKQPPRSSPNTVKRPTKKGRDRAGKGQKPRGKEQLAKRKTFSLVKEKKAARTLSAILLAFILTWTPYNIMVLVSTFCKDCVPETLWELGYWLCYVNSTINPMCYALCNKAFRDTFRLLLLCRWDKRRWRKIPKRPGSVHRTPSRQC
The experiment in a line: Functional mobilization of intracellular calcium (FLIPR), M1-CHO cells. The conditions noted are these: for Emax: 100% efficacy = maximum response obtained with the Carbachol control; for M1 Activity: M1-CHO cells, calcium mobilization (FLIPR). The method in brief:
as §1

Another experiment concerns the target T4, M4 muscarinic receptor (Homo sapiens, UniProt P08173).
T4 construct: expressed in transfected cells; host or cells: CHO (M4-CHO)
T4 sequence (P08173 1-479): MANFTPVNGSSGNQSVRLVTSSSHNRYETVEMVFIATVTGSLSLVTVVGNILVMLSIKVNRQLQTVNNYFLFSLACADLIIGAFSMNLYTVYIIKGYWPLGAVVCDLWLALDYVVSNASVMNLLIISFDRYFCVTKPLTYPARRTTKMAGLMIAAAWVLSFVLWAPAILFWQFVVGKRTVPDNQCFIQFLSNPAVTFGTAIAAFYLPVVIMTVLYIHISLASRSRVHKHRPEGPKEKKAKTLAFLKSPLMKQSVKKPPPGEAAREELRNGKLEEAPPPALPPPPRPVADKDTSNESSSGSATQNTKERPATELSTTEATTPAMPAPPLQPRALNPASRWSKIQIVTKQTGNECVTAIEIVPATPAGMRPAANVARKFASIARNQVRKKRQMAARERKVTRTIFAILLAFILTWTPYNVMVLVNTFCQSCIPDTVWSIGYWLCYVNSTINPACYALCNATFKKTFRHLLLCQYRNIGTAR
Briefly: Functional mobilization of intracellular calcium (FLIPR), M4-CHO cells. The conditions noted are these: for Emax: 100% efficacy = maximum response obtained with the Carbachol control; for M4 Activity: M4-CHO cells, calcium mobilization (FLIPR). The method in brief: as §1

A value given as a limit tells only on which side of the number the result lay.

T1 sequence (P20309 whole entry): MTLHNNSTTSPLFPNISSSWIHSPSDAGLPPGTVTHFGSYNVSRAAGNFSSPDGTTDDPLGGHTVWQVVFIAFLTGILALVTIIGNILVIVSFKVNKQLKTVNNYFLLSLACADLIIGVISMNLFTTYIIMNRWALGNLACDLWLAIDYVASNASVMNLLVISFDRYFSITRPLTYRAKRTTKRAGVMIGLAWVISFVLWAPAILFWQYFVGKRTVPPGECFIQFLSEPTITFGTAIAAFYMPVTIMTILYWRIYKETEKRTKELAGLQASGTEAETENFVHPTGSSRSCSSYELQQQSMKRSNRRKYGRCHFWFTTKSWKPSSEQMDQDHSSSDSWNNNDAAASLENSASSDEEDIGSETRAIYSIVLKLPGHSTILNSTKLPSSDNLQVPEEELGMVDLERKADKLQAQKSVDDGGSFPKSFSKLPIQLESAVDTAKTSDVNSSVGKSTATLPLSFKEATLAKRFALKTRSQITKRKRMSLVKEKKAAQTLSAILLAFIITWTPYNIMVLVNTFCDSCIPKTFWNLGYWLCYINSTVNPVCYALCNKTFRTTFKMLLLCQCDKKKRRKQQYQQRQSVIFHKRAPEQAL

Consider `COc1ccc(-c2cccnc2)cc1C1CCN([C@H]2C[C@H]3CC[C@H]2C3)CC1` [Compound 148], for which, on M3 muscarinic receptor, the Emax was below 25% and the “M3 Activity” value was “+ (activity was measured to be greater than 5.0 μM)”. In addition, at M2 muscarinic receptor, the Emax was below 25% and the “M2 Activity” value is “+ (activity was measured to be greater than 5.0 μM)”. Further, on M1 muscarinic receptor, the Emax is below 25% and the “M1 Activity” value was “+ (activity was measured to be greater than 5.0 μM)”. Also, on M4 muscarinic receptor, the maximal effect (Emax) is below 25% and the “M4 Activity” value is recorded as “+ (activity was measured to be greater than 5.0 μM)”.

On to `Cc1c(C2CCN(C3C[C@H]4CC[C@H]3C4)CC2)cccc1C(F)(F)F` (stereo partly drawn) [Compound 149], for which, on M3 muscarinic receptor, the Emax was below 25% and the “M3 Activity” value is listed as “+ (activity was measured to be greater than 5.0 μM)”. Moreover, at M2 muscarinic receptor, the maximal response (Emax) was below 25% and the “M2 Activity” value was “+ (activity was measured to be greater than 5.0 μM)”. Further, at M1 muscarinic receptor, the maximum response (Emax) fell in the range of 25 to 100% and the “M1 Activity” value is given as “+ (activity was measured to be greater than 5.0 μM)”. Moreover, on M4 muscarinic receptor, the maximal response (Emax) fell in the range of 25 to 100% and the “M4 Activity” value is listed as “+ (activity was measured to be greater than 5.0 μM)”.

Take `COc1ccc(F)cc1C1(OC)CCN(CC2CCOCC2)CC1` [Compound 150]: at M3 muscarinic receptor, the maximal response (Emax) is below 25% and the “M3 Activity” value is recorded as “+ (activity was measured to be greater than 5.0 μM)”. Moreover, on M2 muscarinic receptor, the Emax is below 25% and the “M2 Activity” value was “+ (activity was measured to be greater than 5.0 μM)”. Also, at M1 muscarinic receptor, the Emax fell in the range of 25 to 100% and the “M1 Activity” value is listed as “+ (activity was measured to be greater than 5.0 μM)”. In addition, at M4 muscarinic receptor, the Emax was 25 to 100% and the “M4 Activity” value is on record as “+ (activity was measured to be greater than 5.0 μM)”.

With `COc1ccccc1C1CCN(C2CCC(C(C)(C)C)CC2)CC1` (stereo not drawn) [Compound 152], at M3 muscarinic receptor, the Emax is below 25% and the “M3 Activity” value is given as “+ (activity was measured to be greater than 5.0 μM)”. At M2 muscarinic receptor, the maximum response (Emax) is below 25% and the “M2 Activity” value is “+ (activity was measured to be greater than 5.0 μM)”. At M1 muscarinic receptor, the Emax is below 25% and the “M1 Activity” value is “+ (activity was measured to be greater than 5.0 μM)”. Moreover, at M4 muscarinic receptor, the Emax was below 25% and the “M4 Activity” value is “+ (activity was measured to be greater than 5.0 μM)”.

On to `COc1ccccc1[C@@H]1CCN([C@@H]2C[C@H]3CC[C@H]2C3)C[C@H]1O` [Compound 154], for which, at M3 muscarinic receptor, the Emax was below 25% and the “M3 Activity” value is reported as “+ (activity was measured to be greater than 5.0 μM)”. Besides, on M2 muscarinic receptor, the Emax was below 25% and the “M2 Activity” value is “+ (activity was measured to be greater than 5.0 μM)”. Besides, at M1 muscarinic receptor, the maximal response (Emax) was below 25% and the “M1 Activity” value is “+ (activity was measured to be greater than 5.0 μM)”. Besides, at M4 muscarinic receptor, the maximum response (Emax) is 25 to 100% and the “M4 Activity” value is recorded as “+ (activity was measured to be greater than 5.0 μM)”.

On to `COc1ccccc1C1CCN(C2CCC(C(C)C)CC2)CC1` (stereo not drawn) [Compound 155], for which, at M3 muscarinic receptor, the maximal effect (Emax) is below 25% and the “M3 Activity” value is given as “+ (activity was measured to be greater than 5.0 μM)”. In addition, on M2 muscarinic receptor, the maximal response (Emax) was below 25% and the “M2 Activity” value is listed as “+ (activity was measured to be greater than 5.0 μM)”. Besides, on M1 muscarinic receptor, the Emax was below 25% and the “M1 Activity” value is given as “+ (activity was measured to be greater than 5.0 μM)”. Also, at M4 muscarinic receptor, the Emax was below 25% and the “M4 Activity” value is “+ (activity was measured to be greater than 5.0 μM)”.

With `COc1ccccc1C1CCN(C2CCC(C)CC2)CC1` (stereo not drawn) [Compound 158], on M3 muscarinic receptor, the Emax is below 25% and the “M3 Activity” value is reported as “+ (activity was measured to be greater than 5.0 μM)”. Besides, at M2 muscarinic receptor, the maximal response (Emax) is below 25% and the “M2 Activity” value is given as “+ (activity was measured to be greater than 5.0 μM)”. Moreover, on M1 muscarinic receptor, the maximal response (Emax) lay within 25 to 100% and the “M1 Activity” value is listed as “+ (activity was measured to be greater than 5.0 μM)”. Further, on M4 muscarinic receptor, the maximal response (Emax) is 25 to 100% and the “M4 Activity” value is “+++ (activity was measured to be less than 1.0 μM)”.

For the molecule `COc1ccc(F)cc1C1(OC)CCN(C[C@@H]2C[C@H]3C=C[C@H]2C3)CC1` [Compound 160], at M3 muscarinic receptor, the Emax is below 25% and the “M3 Activity” value was “+ (activity was measured to be greater than 5.0 μM)”. At M2 muscarinic receptor, the Emax is below 25% and the “M2 Activity” value is “+ (activity was measured to be greater than 5.0 μM)”. Moreover, on M1 muscarinic receptor, the maximal effect (Emax) is 25 to 100% and the “M1 Activity” value is on record as “+ (activity was measured to be greater than 5.0 μM)”. In addition, at M4 muscarinic receptor, the maximum response (Emax) fell in the range of 25 to 100% and the “M4 Activity” value is given as “+++ (activity was measured to be less than 1.0 μM)”.

Consider `COc1ccc(Cl)cc1C1(F)CCN(C2CCCCCC2)CC1` [Compound 161], for which, on M3 muscarinic receptor, the Emax was below 25% and the “M3 Activity” value is given as “+ (activity was measured to be greater than 5.0 μM)”. Moreover, on M2 muscarinic receptor, the Emax lay in the range of 25 to 100% and the “M2 Activity” value is “+ (activity was measured to be greater than 5.0 μM)”. Moreover, at M1 muscarinic receptor, the Emax lay within 25 to 100% and the “M1 Activity” value is recorded as “+ (activity was measured to be greater than 5.0 μM)”. At M4 muscarinic receptor, the maximal response (Emax) fell in the range of 25 to 100% and the “M4 Activity” value is given as “+ (activity was measured to be greater than 5.0 μM)”.

On to `COc1ccc(F)cc1C1CCN(CC2CCOCC2)CC1` [Compound 163], for which, at M3 muscarinic receptor, the Emax was below 25% and the “M3 Activity” value was “+ (activity was measured to be greater than 5.0 μM)”. Moreover, at M2 muscarinic receptor, the maximal response (Emax) was below 25% and the “M2 Activity” value was “+ (activity was measured to be greater than 5.0 μM)”. At M1 muscarinic receptor, the maximum response (Emax) was 25 to 100% and the “M1 Activity” value is “+ (activity was measured to be greater than 5.0 μM)”. At M4 muscarinic receptor, the maximal response (Emax) lay within 25 to 100% and the “M4 Activity” value was “+++ (activity was measured to be less than 1.0 μM)”.

Turning to `COc1c(F)cc(F)cc1C1CCN([C@H]2C[C@H]3CC[C@H]2C3)CC1` [Compound 165], at M3 muscarinic receptor, the Emax was below 25% and the “M3 Activity” value is “+ (activity was measured to be greater than 5.0 μM)”. Besides, on M2 muscarinic receptor, the Emax is below 25% and the “M2 Activity” value is listed as “+ (activity was measured to be greater than 5.0 μM)”. Also, at M1 muscarinic receptor, the Emax lay in the range of 25 to 100% and the “M1 Activity” value is on record as “+ (activity was measured to be greater than 5.0 μM)”. In addition, on M4 muscarinic receptor, the Emax lay within 25 to 100% and the “M4 Activity” value was “++ (activity was measured to be from 1.0 μM to 5.0 μM)”.

Consider `COc1ccc(F)cc1C1CCN(C[C@@H]2C[C@H]3C=C[C@H]2C3)CC1` [Compound 167], for which, on M3 muscarinic receptor, the Emax was below 25% and the “M3 Activity” value is on record as “+ (activity was measured to be greater than 5.0 μM)”. Besides, on M2 muscarinic receptor, the maximum response (Emax) was below 25% and the “M2 Activity” value is “+ (activity was measured to be greater than 5.0 μM)”. At M1 muscarinic receptor, the Emax was 25 to 100% and the “M1 Activity” value was “++ (activity was measured to be from 1.0 μM to 5.0 μM)”. Besides, on M4 muscarinic receptor, the Emax was in the range of 25 to 100% and the “M4 Activity” value is “+++ (activity was measured to be less than 1.0 μM)”.

Broadly, the Emax is the size of the effect at its maximum, as opposed to the concentration needed.
